# Measurements from US20260138961A1, “MODULATORS OF MITOCHONDRIAL DNA REPLICATION” (Pretzel Therapeutics, Inc., priority 2022, published 2026).
# Target: T1, POLγA:G848S (Homo sapiens, UniProt P54098, G848S)
# T1 sequence (P54098 1-1239 G848S): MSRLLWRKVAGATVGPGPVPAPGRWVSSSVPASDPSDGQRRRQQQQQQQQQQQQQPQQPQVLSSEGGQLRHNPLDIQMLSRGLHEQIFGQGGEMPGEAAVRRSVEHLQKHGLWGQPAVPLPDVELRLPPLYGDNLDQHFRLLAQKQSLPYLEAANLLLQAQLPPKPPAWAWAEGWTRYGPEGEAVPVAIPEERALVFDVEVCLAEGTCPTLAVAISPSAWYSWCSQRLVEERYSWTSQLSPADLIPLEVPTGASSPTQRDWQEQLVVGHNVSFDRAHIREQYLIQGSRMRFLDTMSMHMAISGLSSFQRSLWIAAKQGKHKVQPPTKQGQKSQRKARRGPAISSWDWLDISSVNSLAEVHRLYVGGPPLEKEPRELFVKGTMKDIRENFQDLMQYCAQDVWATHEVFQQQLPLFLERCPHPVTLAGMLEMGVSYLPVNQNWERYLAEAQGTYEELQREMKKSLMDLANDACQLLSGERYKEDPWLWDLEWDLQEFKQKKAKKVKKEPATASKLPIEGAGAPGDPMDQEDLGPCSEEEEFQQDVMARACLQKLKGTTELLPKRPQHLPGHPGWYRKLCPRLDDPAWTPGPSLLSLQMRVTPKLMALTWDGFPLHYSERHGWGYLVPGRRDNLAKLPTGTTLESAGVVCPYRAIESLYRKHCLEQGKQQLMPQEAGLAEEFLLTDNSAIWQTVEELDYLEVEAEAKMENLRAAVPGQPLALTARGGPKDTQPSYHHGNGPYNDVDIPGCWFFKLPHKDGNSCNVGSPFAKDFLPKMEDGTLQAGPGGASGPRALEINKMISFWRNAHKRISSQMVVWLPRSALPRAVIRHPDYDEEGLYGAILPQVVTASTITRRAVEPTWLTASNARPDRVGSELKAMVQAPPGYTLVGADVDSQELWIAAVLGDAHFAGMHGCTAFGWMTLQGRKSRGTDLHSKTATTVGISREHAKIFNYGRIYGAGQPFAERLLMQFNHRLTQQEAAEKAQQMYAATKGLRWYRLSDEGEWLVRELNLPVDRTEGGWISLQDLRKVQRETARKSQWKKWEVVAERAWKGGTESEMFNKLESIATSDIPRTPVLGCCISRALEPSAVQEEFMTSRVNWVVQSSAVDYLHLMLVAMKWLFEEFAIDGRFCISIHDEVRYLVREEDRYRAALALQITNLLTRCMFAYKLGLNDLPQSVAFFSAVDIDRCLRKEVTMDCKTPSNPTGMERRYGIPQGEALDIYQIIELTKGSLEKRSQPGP
# T1 sequence (Q9UHN1 1-485 partner): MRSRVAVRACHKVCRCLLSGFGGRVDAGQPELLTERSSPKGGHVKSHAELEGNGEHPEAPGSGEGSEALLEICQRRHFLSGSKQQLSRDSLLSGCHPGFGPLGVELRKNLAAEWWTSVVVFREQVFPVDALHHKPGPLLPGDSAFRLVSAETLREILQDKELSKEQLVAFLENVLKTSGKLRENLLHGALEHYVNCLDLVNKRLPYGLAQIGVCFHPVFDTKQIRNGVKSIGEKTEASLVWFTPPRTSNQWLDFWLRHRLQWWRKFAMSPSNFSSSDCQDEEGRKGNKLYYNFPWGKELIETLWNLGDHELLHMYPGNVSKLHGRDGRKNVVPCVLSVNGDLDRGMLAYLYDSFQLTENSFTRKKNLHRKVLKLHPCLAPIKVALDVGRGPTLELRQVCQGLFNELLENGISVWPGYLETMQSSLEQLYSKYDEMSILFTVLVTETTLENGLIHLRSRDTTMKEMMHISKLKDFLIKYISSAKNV
# Assay: DNA polymerization assay, POLγA:G848S mutant
# Assay type: biochemical
# Conditions: stimulation of polymerase activity, primed M13mp18 ssDNA, 37° C. 2 hours; read-out: G848S AC50
row,SMILES,AC50
1,"Cc1cc(S(=O)(=O)Nc2cccc(C(=O)N3CCN(C)CC3)c2)c(C)cc1Cl [Example 52, 4-chloro-2,5-dimethyl-N-(3-(4-methylpiperazine-1-carbonyl)phenyl)benzenesulfonamide]",> 100 µM
2,"Cc1cc(S(=O)(=O)Nc2cccc(C(=O)NCCO)c2)c(C)cc1Cl [Example 53, 3-((4-chloro-2,5-dimethylphenyl)sulfonamido)-N-(2-hydroxyethyl)benzamide]",63 µM
3,"Cc1cc(S(=O)(=O)Nc2cccc(C(=O)N3CCN(C)C[C@H]3C)c2)c(C)cc1Cl [Example 54, (R)-4-chloro-N-(3-(2,4-dimethylpiperazine-1-carbonyl)phenyl)-2,5-dimethylbenzenesulfonamide]",21 µM
4,"Cc1cc(S(=O)(=O)Nc2cccc(C(=O)N3CCN(CCO)CC3)c2)c(C)cc1Cl [Example 55, 4-chloro-N-(3-(4-(2-hydroxyethyl)piperazine-1-carbonyl)phenyl)-2,5-dimethylbenzenesulfonamide]",> 100 µM
5,"Cc1cc(S(=O)(=O)Nc2cccc(C(=O)N(C)CCO)c2)c(C)cc1Cl [Example 56, 3-((4-chloro-2,5-dimethylphenyl)sulfonamido)-N-(2-hydoxyethyl)-N-methylbenzamide]",56 µM
6,"Cc1cc(S(=O)(=O)Nc2cccc(C(=O)N3CCC[C@H]3C)c2F)c(C)cc1Cl [Example 57, (R)-4-chloro-N-(2-fluoro-3-(2-methylpyrrolidine-1-carbonyl)phenyl)-2,5-dimethylbenzenesulfonamide]",> 100 µM
7,"COCCN(C)C(=O)c1cccc(NS(=O)(=O)c2cc(C)c(Cl)cc2C)c1 [Example 58, 3-((4-chloro-2,5-dimethylphenyl)sulfonamido)-N-(2-methoxyethyl)-N-methylbenzamide]",46 µM
8,"O=S(=O)(Nc1cccc(-c2nccs2)c1)c1ccc(Cl)cc1 [Example 59, 4-chloro-N-(3-(thiazol-2-yl)phenyl)benzenesulfonamide]",> 100 µM
9,Cc1ccc(C)c(S(=O)(=O)Nc2cccc(-c3nccs3)c2)c1 [Example 60],2 µM
10,"Cc1cc(S(=O)(=O)Nc2cc(-c3nccs3)ccc2F)c(C)cc1Cl [Example 61, 4-chloro-N-(2-fluoro-5-(thiazol-2-yl)phenyl)-2,5-dimethylbenzenesulfonamide]",> 100 µM
11,"Cc1cc(S(=O)(=O)Nc2cc(F)cc(-c3nccs3)c2)c(C)cc1Cl [Example 62, 4-chloro-N-(3-fluoro-5-(thiazol-2-yl)phenyl)-2,5-dimethylbenzenesulfonamide]",> 100 µM
12,"Cc1cc(S(=O)(=O)Nc2ccc(F)c(-c3nccs3)c2)c(C)cc1Cl [Example 63, 4-chloro-N-(4-fluoro-3-(thiazol-2-yl)phenyl)-2,5-dimethylbenzenesulfonamide]",> 100 µM
13,"Cc1cc(S(=O)(=O)Nc2cccc(-c3cc(C4CC4)[nH]n3)c2)c(C)cc1Cl [Example 64, 4-chloro-N-(3-(5-cyclopropyl-1H-pyrazol-3-yl)phenyl)-2,5-dimethylbenzenesulfonamide]",1 µM
14,"CC[C@@H]1CCCN1C(=O)c1cccc(NS(=O)(=O)c2cc(C)c(Cl)cc2C)c1 [Example 65, (R)-4-chloro-N-(3-(2-ethylpyrrolidine-1-carbonyl)phenyl)-2,5-dimethylbenzenesulfonamide]",12 µM
15,"Cc1cc(-c2cccc(NS(=O)(=O)c3cc(C)c(Cl)cc3C)c2)n[nH]1 [Example 66, 4-chloro-2,5-dimethyl-N-(3-(5-methyl-1H-pyrazol-3-yl)phenyl)benzenesulfonamide]",1 µM
16,"Cc1cc(S(=O)(=O)Nc2ccc3ccn(C(C)C)c3c2)c(C)cc1Cl [Example 69, 4-chloro-N-(1-isopropyl-1H-indol-6-yl)-2,5-dimethylbenzenesulfonamide]",14 µM
17,"Cc1nc2ccc(NS(=O)(=O)c3cc(C)c(Cl)cc3C)cc2o1 [Example 70, 4-chloro-2,5-dimethyl-N-(2-methylbenzo[d]oxazol-6-yl)benzenesulfonamide]",49 µM
18,"Cc1nc2cc(NS(=O)(=O)c3cc(C)c(Cl)cc3C)ccc2s1 [Example 71, 4-chloro-2,5-dimethyl-N-(2-methylbenzo[d]thiazol-5-yl)benzenesulfonamide]",> 100 µM

# The next lines start with the values.
row,AC50,SMILES
1,> 100 µM,"Cc1c(Cl)cccc1S(=O)(=O)Nc1csc(-c2ccccc2)n1 [Example 154, 3-chloro-2-methyl-N-(2-phenylthiazol-4-yl)benzenesulfonamide]"
2,4 µM,"COc1ccccc1-c1nc(NS(=O)(=O)c2cc(C)c(Cl)cc2C)cs1 [Example 155, 4-chloro-N-(2-(2-methoxyphenyl)thiazol-4-yl)-2,5-dimethylbenzenesulfonamide]"
3,> 100 µM,"Cc1cc(S(=O)(=O)Nc2nc(-c3ccccc3)co2)c(C)cc1Cl [Example 157, 4-chloro-2,5-dimethyl-N-(4-phenyloxazol-2-yl)benzenesulfonamide]"
4,> 100 µM,"Cc1cc(S(=O)(=O)N[C@H]2CCN(c3ccccc3)C2)c(C)cc1Cl [Example 158, (S)-4-chloro-2,5-dimethyl-N-(1-phenylpyrrolidin-3-yl)benzenesulfonamide]"
5,> 100 µM,"Cc1cc(S(=O)(=O)Nc2nc(-c3ccccc3)cn2C)c(C)cc1Cl [Example 159, 4-chloro-2,5-dimethyl-N-(1-methyl-4-phenyl-1H-imidazol-2-yl)benzenesulfonamide]"
6,14 µM,"Cc1cc(S(=O)(=O)Nc2cccc(C(=O)N3CCC(F)(F)C3)c2)c(C)cc1Cl [Example 160, 4-chloro-N-(3-(3,3-difluoropyrrolidine-1-carbonyl)phenyl)-2,5-dimethylbenzenesulfonamide]"
7,31 µM,"Cc1cc(S(=O)(=O)N[C@H]2CCCN(c3ccccc3)C2)c(C)cc1Cl [Example 161, (S)-4-chloro-2,5-dimethyl-N-(1-phenylpiperidin-3-yl)benzenesulfonamide]"
8,13 µM,"Cc1cc(S(=O)(=O)Nc2cccc(C(=O)N3CCCC34CC4)c2)c(C)cc1Cl [Example 162, N-(3-(4-azaspiro[2.4]heptane-4-carbonyl)phenyl)-4-chloro-2,5-dimethylbenzenesulfonamide]"
9,37 µM,"CC(=O)N1CCC(c2nc(NS(=O)(=O)c3cc(C)c(Cl)cc3C)cs2)CC1 [Example 163, N-(2-(1-acetylpiperidin-4-yl)thiazol-4-yl)-4-chloro-2,5-dimethylbenzenesulfonamide]"
10,0.6 µM,"Cc1cc(S(=O)(=O)Nc2csc(C(=O)N3CCCC3)n2)c(C)cc1Cl [Example 166, 4-chloro-2,5-dimethyl-N-(2-(pyrrolidine-1-carbonyl)thiazol-4-yl)benzenesulfonamide]"
11,2 µM,"Cc1cc(S(=O)(=O)Nc2csc(C3CCOCC3)n2)c(C)cc1Cl [Example 167, 4-chloro-2,5-dimethyl-N-(2-(tetrahydro-2H-pyran-4-yl)thiazol-4-yl)benzenesulfonamide]"
12,> 100 µM,"Cc1cc(S(=O)(=O)Nc2cn(Cc3ccccc3)cn2)c(C)cc1Cl [Example 168, N-(1-benzyl-1H-imidazol-4-yl)-4-chloro-2,5-dimethylbenzenesulfonamide]"
13,> 100 µM,"Cc1cc(S(=O)(=O)Nc2cn(-c3ccccc3)cn2)c(C)cc1Cl [Example 169, 4-chloro-2,5-dimethyl-N-(1-phenyl-1H-imidazol-4-yl)benzenesulfonamide]"
14,> 10 µM,"Cc1cc(S(=O)(=O)Nc2cn(C)c(-c3ccccc3)n2)c(C)cc1Cl [Example 170, 4-chloro-2,5-dimethyl-N-(1-methyl-2-phenyl-1H-imidazol-4-yl)benzenesulfonamide]"
